Calls of active or inactive are those of the source. The calls are words filed in the database; no cut-off is given here.
Tests used:
[1] = Cytotoxicity against human MCF-10A cells incubated for 24 hrs by CCK-8 reagent based spectrophotometric analysis; format: toxicity, cell-based
[2] = system: MDA-MB-231; experiment: Cytotoxicity against human MDA-MB-231 cells incubated for 24 hrs by CCK-8 reagent based spectrophotometric analysis; format: functional, cell-based; conditions: MDA-MB-231, 24 h
[3] = system: U2OS; experiment: Cytotoxicity against human U2OS cells incubated for 24 hrs by CCK-8 reagent based spectrophotometric analysis; format: functional, cell-based
[4] = system: Quadruplex DNA; experiment: Stabilization of G-quadruplex telomeric DNA in human MDA-MB-231 cells assessed as increase in BG4-positive cell nuclei at 3 uM incubated for 24 hrs by DAPI staining based immunofluorescence microscopic analysis
[5] = system: Quadruplex DNA; experiment: Stabilization of G-quadruplex telomeric DNA in human MDA-MB-231 cells assessed as increase in colocalization of BG4 and TRF2 formation foci at 3 uM incubated for 24 hrs by DAPI staining based immunofluorescence microscopic analysis; format: cell-based
[6] = system: Quadruplex DNA; experiment: Stabilization of G-quadruplex telomeric DNA in human MDA-MB-231 cells assessed as increase in S9.6-positive cell nuclei at 3 uM incubated for 24 hrs by DAPI staining based immunofluorescence microscopic analysis
[7] = system: Quadruplex DNA; experiment: Stabilization of G-quadruplex telomeric DNA in human MDA-MB-231 cells assessed as R-loop formation in mitochondria by measuring increase in S9.6 intensity at 3 uM incubated for 24 hrs by DAPI staining based immunofluorescence microscopic analysis
[8] = system: MDA-MB-231; experiment: Induction of DNA damage in human MDA-MB-231 cells assessed as increase in gamma-H2AX level in nucleus at 3 uM incubated for 24 hrs by DAPI staining based immunofluorescence analysis; format: functional, cell-based
[9] = system: MDA-MB-231; experiment: Induction of DNA damage in human MDA-MB-231 cells assessed as upregulation of gamma-H2AX expression at 1 to 4 uM incubated for 24 hrs by Western blot analysis; format: functional, cell-based; conditions: dose 1-4 µM
[10] = system: MDA-MB-231; experiment: Induction of DNA damage in human MDA-MB-231 cells assessed as upregulation of RPA32 expression at 1 to 4 uM incubated for 24 hrs by Western blot analysis; format: functional, cell-based; conditions: dose 1-4 µM
[11] = system: MDA-MB-231; experiment: Induction of DNA damage in human MDA-MB-231 cells assessed as upregulation of ATM phosphorylation incubated for 24 hrs by Western blot analysis; format: functional, cell-based
[12] = system: MDA-MB-231; experiment: Induction of DNA damage in human MDA-MB-231 cells assessed as upregulation of ATM phosphorylation at 4 uM by Western blot analysis; format: functional, cell-based; conditions: TDE = time-dependent effect
[13] = system: MDA-MB-231; experiment: Induction of cell cycle arrest in human MDA-MB-231 cells assessed as accumulation of cells at G0/G1 phase at 2 uM incubated for 24 hrs by RNase/PI staining based flow cytometry (reference value: 82.3 %); format: functional
[14] = system: MDA-MB-231; experiment: Induction of cell cycle arrest in human MDA-MB-231 cells assessed as accumulation of cells at S phase at 1 uM incubated for 24 hrs by RNase/PI staining based flow cytometry (reference value: 6.3 %); format: functional
[15] = system: MDA-MB-231; experiment: Induction of cell cycle arrest in human MDA-MB-231 cells assessed as accumulation of cells at S phase at 4 uM incubated for 24 hrs by RNase/PI staining based flow cytometry (reference value: 6.3 %); format: functional
[16] = system: MDA-MB-231; experiment: Induction of cell cycle arrest in human MDA-MB-231 cells assessed as accumulation of cells at G2/M phase at 1 uM incubated for 24 hrs by RNase/PI staining based flow cytometry (reference value: 11.3 %); format: functional
[17] = system: MDA-MB-231; experiment: Induction of cell cycle arrest in human MDA-MB-231 cells assessed as downregulation of Cyclin B1 expression at 1 to 4 uM incubated for 24 hrs by Western blot analysis; format: functional, cell-based; conditions: dose 1-4 µM
[18] = system: MDA-MB-231; experiment: Inhibition of cell migration in human MDA-MB-231 cells incubated for 48 hrs by wound scrape assay; format: functional, cell-based
[19] = system: MDA-MB-231; experiment: Induction of immunogenic cell death in human MDA-MB-231 cells assessed as increase in CRT expression incubated for 24 hrs by Alexa Fluor 647 flow cytometric assay; format: functional, cell-based
[20] = system: MDA-MB-231; experiment: Induction of immunogenic cell death in human MDA-MB-231 cells assessed as increase in CRT expression incubated for 24 hrs by immunofluorescence confocal laser scanning microscopic analysis; format: functional, cell-based
[21] = system: MDA-MB-231; experiment: Induction of immunogenic cell death in human MDA-MB-231 cells assessed as increase in HMGB1 release at 1 to 4 uM incubated for 24 hrs by ELISA; format: functional, cell-based; conditions: dose 1-4 µM
[22] = system: MDA-MB-231; experiment: Induction of immunogenic cell death in human MDA-MB-231 cells assessed as increase in ATP release at 1 to 4 uM incubated for 24 hrs by ELISA; format: functional, cell-based; conditions: dose 1-4 µM
[23] = system: Quadruplex DNA; experiment: Binding affinity to G-quadruplex telomeric DNA (unknown origin) assessed as thermal shift at 10 uM by UV-Visible spectrophotometric analysis; format: nucleic-acid assay
[24] = system: DNA; experiment: Binding affinity to Hairpin DNA (unknown origin) assessed as thermal shift at 10 uM by UV-Visible spectrophotometric analysis; format: nucleic-acid assay
[25] = system: Quadruplex DNA; experiment: Binding affinity to c-MYC G-quadruplex telomeric DNA (unknown origin) assessed as […] in melting temperature by FRET assay; format: nucleic-acid assay
[26] = system: BMDC; experiment: Induction of immunogenic cell death in BALB/c mouse BMDC cells co-cultured with mouse 4T1 cells assessed as increase in CD11c+ CD80+ CD86 cells maturation at 2.5 uM incubated for 24 hrs by flow cytometry (reference value: 69.4 %); format: functional
[27] = system: 4T1; experiment: Antitumor activity against mouse 4T1 cells implanted in BALB/c mouse assessed as reduction in tumor volume at 10 mg/kg,ip every other day for 14 days; format: functional, organism-based; conditions: time 14.0 day
[28] = system: 4T1; experiment: Antitumor activity against mouse 4T1 cells implanted in BALB/c mouse assessed as damage in tumor tissue at 10 mg/kg,ip every other day for 14 days by hematoxylin and eosin staining analysis; format: functional, organism-based; conditions: time 14.0 day
[29] = system: 4T1; experiment: Antitumor activity against mouse 4T1 cells implanted in BALB/c mouse assessed as upregulation of gamma-H2AX expression in tumor at 10 mg/kg,ip every other day for 14 days by immunohistochemistry; format: functional, organism-based; conditions: time 14.0 day
[30] = system: 4T1; experiment: Antitumor activity against mouse 4T1 cells implanted in BALB/c mouse assessed as upregulation of cleaved PARP expression in tumor at 10 mg/kg,ip every other day for 14 days by Western blot analysis; format: functional, organism-based; conditions: time 14.0 day
[31] = system: 4T1; experiment: Antitumor activity against mouse 4T1 cells implanted in BALB/c mouse assessed as upregulation of cleaved caspase-3 expression in tumor at 10 mg/kg,ip every other day for 14 days by Western blot analysis; format: functional, organism-based; conditions: time 14.0 day
[32] = system: 4T1; experiment: Antitumor immunity against mouse 4T1 cells implanted in BALB/c mouse assessed as increase in proportion of CD4+ T cells in spleen at 10 mg/kg,ip every other day for 14 days by flow cytometry; format: functional, organism-based; conditions: time 14.0 day
[33] = system: 4T1; experiment: Antitumor immunity against mouse 4T1 cells implanted in BALB/c mouse assessed as increase in proportion of CD4+ T cells in tumor at 10 mg/kg,ip every other day for 14 days by flow cytometry; format: functional, organism-based; conditions: time 14.0 day
[34] = system: 4T1; experiment: Antitumor immunity against mouse 4T1 cells implanted in BALB/c mouse assessed as increase in proportion of CD4+ T cells in tumor at 10 mg/kg,ip every other day for 14 days by immunohistochemistry staining based analysis; format: functional, organism-based; conditions: time 14.0 day
[35] = system: 4T1; experiment: Antitumor immunity against mouse 4T1 cells implanted in BALB/c mouse assessed as increase in serum TNF-alpha level at 10 mg/kg,ip every other day for 14 days by ELISA; format: functional, organism-based; conditions: time 14.0 day

Compound: CN(C)CCN(C)c1ccc(-c2nc3ccc(C(F)(F)F)cc3nc2-c2ccc(N(C)CCN(C)C)cc2)cc1
- IC50 at 24 h [1]: 5.8 µM
- IC50 [2]: 1.7 µM
- IC50 [3]: 3 µM
- Activity [4]: Active
- Activity [5]: Active
- Activity [6]: Active
- Activity [7]: Active
- Activity [8]: Active
- Activity [9]: Active
- Activity [10]: Active
- Activity [11]: Dose-Dependent Effect
- Activity [12]: Tde
- Activity [13]: 81.6%
- Activity [14]: 6.4%
- Activity [15]: 8.6%
- Activity [16]: 11.4%
- Activity [17]: Active
- inhibition [18]: Dose-Dependent Effect
- Activity [19]: Dose-Dependent Effect
- Activity [20]: Dose-Dependent Effect
- Activity [21]: Active
- Activity [22]: Active
- Activity [23]: Active
- Activity [24]: inactive
- Activity [25]: Active
- Activity [26]: 70.1%
- Activity [27]: Active
- Activity [28]: Active
- Activity [29]: Active
- Activity [30]: Active
- Activity [31]: Active
- Activity [32]: Active
- Activity [33]: Active
- Activity [34]: Active
- Activity [35]: Active

Source: ChEMBL document CHEMBL5550165, “Novel quinoxaline analogs as telomeric G-quadruplex ligands exert antitumor effects related to enhanced immunomodulation” (Eur J Med Chem, 2024)
